The values below come from PMC8599855, “Detection of cancer stem cells by EMT-specific biomarker-based peptide ligands” (Scientific Reports, 2021).

Data set [1] concerns SAS cells. Nature of the data set: AlamarBlue cell viability assay. Format: cell-based, human. The conditions noted are these: for IC50: Homo sapiens, AlamarBlue. As for the experimental part: Figure 3 In vitro induction of EMT and stemness with Unc0642/IR. (a) SAS cells were treated with indicated concentration of Unc0642 and Unc0642 + 2 Gy of radiation for 72 h respectively. Cell viability was assessed by AlamarBlue assay. All data were normalized to cells without treatment. Data are presented as mean ± SD. IC50 was calculated using SigmaPlot12 software. (b) Western blot analysis of CSC and EMT markers in SAS cells treated with different concentration of Unc 0642 (1.25 and 10 µM) and different dose of radiation (2 and 4 Gy) respectively. Internal control: b-actin. Right graph: the quantification of protein expression levels normalized against b-actin levels in each sample. *p < 0.05; **p < 0.01 by Student’s t-test. The blots were cropped from different parts of the same gel. The original blots and all replicates are presented in Supplementary Fig. 4.
SAS-wt, SAS-EGFP-Fluc and SAS-E2-crimson-P2A::ttksr39 cells were seeded in a 96-well cell culture plate at the density of 5x10^3 cells/well overnight and incubated with serial dilutions of Unc0642 (the concentration of Unc0642 was 0.625, 1.25, 2.5, […], 5, 10, 20, 40, 80 μM respectively in culture medium). Plates were then incubated 48 hours at 37 °C under 5% CO2. Relative cell viabilities were determined by a AlamarBlue assay. 10% v/v of AlamarBlue (Serotec, Oxon, UK) was added into each well and the well containing culture medium without cells served as negative controls. Absorbance was measured at 570 nm against a reference wavelength at 600 nm using a microplate reader (Tecan, Infinite 200 pro, Zürich, Switzerland) after incubation for 24 h at 37°C. Results were presented as the percentage of AlamarBlue reduction and were corrected to background values of negative controls. IC50 values were calculated from a log([drug]) versus normalized response curve fit using SigmaPlot12.

The test system of data set [2] is SAS cells. Nature of the data set: Western blot of EMT/CSC markers after in vitro induction of EMT. Format: cell-based, human. As for the experimental part: To induce the EMT of SAS cells, cells were seeded in 60 mm^2 dishes at the density of 1 × 10^6 cells/dish overnight and incubated with 1.25 and 10 μM Unc0642. After 24 h, cells were exposed under 2 Gy and 4 Gy of radiation by a RS2000 Series Biological Irradiator (Rad Source Technologies Inc, Buford, GA, USA) and replaced with fresh Unc0642 containing medium every 24 h. The expression of vimentin and E-cadherin were detected by western blotting.
Cultured cells were placed on ice, washed by ice-cold PBS and lysed using CytoBuster Protein Extraction Reagent (cat. 71,009, Bedford, MA, USA) containing Protease Inhibitor Cocktail Set I (cat. 539131, Millipore, Bedford, MA, USA). Cells were then scraped, collected in Eppendorf tubes and the sonicated for 30 min. The lysate was spun down at 12,000 g for 10 min at 4 °C. The protein content was measured using Bradford reagent (BIO-RAD, Hercules, CA, USA). The equal amounts of protein (40 μg) were separated in SDS-PAGE gels (30% Acrylamide/Bis Solution, 29:1, cat. 1610157, BIO-RAD, Hercules, CA, USA) and transferred to PVDF membranes (cat. NEF1002001PK, Perkin-Elmer life sciences, Boston, MA, USA). For immunoblotting, membranes were cut in terms of the molecular weight range prior to hybridization with primary antibody for vimentin (GTX100619, GeneTex, Irvine, CA, USA), nucleolin (GTX132778, GeneTex, Irvine, CA, USA), E-cadherin (GTX50757, GeneTex, Irvine, CA, USA) and b-actin (GTX109639, GeneTex, Irvine, CA, USA) overnight at 4 °C and then incubated with horseradish peroxidase HRP-conjugate goat anti-rabbit IgG (GeneTex, Irvine, CA, USA). Protein signals were visualized using a LumiFast Chemiluminescence Detection Kit (cat. JT96-K001S, T-Pro Biotechnology, Taiwan). Image capture was performed on an ImageQuant LAS4000 biomolecular image (GE healthcare life, Chicago, IL, USA). The intensities of protein bands were quantitated using ImageJ Gel Analysis program. Quantification of protein expression was performed by Image J. b-actin was used as loading control.

Data set [3] in a line: Body weight of xenograft mice. The format is in vivo, mouse. Here is the method:
All animal procedures were performed in accordance with the Guide for Care and Use of Laboratory Animals and National Yang-Ming University’s IACUC number was 1080110. Immunodeficient male mice (BALB/cAnNCrj-nu/nu, six weeks old, 20 gm) were provided by National Laboratory Animal Center (NLAC), NARLabs, Taiwan. Mice were group-housed (6 animals per cage) in individually ventilated cages (IVC) systems and had unlimited access to food and water. […] For establishment of xenografts, 2 × 10^6 SAS-EGFP-Fluc cells in 100 μL phosphate-buffered saline (PBS) were injected subcutaneously into the animal's right shoulder and 2 × 10^6 SAS-wt cells were injected into the left leg. Growth of the implanted tumors was monitored twice a week and tumor volumes were estimated from caliper measurements according to the following formula: tumor volume = (lengthÍwidth^2) Í0.523. When tumor size reached approximately 10 mm^3, the mice were randomized into four groups of five animals per group for the following treatments: (1) DMSO (1 ml/kg body weight), (2) Unc0642 (2.5 mg/kg body weight), (3) 2 Gy of radiation, (4) Unc0642 (2.5 mg/kg body weight) and 2 Gy of radiation. Mice were given Unc0642 (cat. SML1037, Sigma-Aldrich, St. Louis, MO) intraperitoneally (i.p) every two days for 3 times. […]

Read-outs that look alike come from different tables or passages of the source.

Take `COc1cc2c(NC3CCN(C(C)C)CC3)nc(N3CCC(F)(F)CC3)nc2cc1OCCCN1CCCC1` [Unc0642]: the “Effect on cell proliferation at the peak dose” value in data set [1] (1.25 μM Unc0642, single treatment or combined with IR, SAS cells) is “could induce cell proliferation”. In addition, the IC50 in data set [1] (SAS cells exposed to Unc0642 alone for 72 h, normalized to untreated cells, SigmaPlot12 fit, read-out: IC50 (50% inhibition concentration), cell viability) was 12.1 µM; in data set [1] (SAS cells, Unc0642 combined with 4 Gy of IR, 72 h, read-out: IC50, cell viability, combined with IR), 4.79 µM. The Vimentin expression result in data set [2] (1.25 μM Unc0642, western blot) is “increased”; in data set [2] (10 μM Unc0642, western blot) it was “almost unchanged”. Also, the Nucleolin level entry in data set [2] (1.25 μM Unc0642, western blot, p < 0.05) is “slightly increased”. For the same compound, the “Vimentin expression versus control SAS cells” value in data set [2] (2 Gy of IR and 1.25 μM Unc0642, western blot normalized to b-actin, p < 0.01) was “~ twofold”. Moreover, the E-cadherin protein expression result in data set [2] (Unc0642 alone, western blot) is “diminished protein expression level”. For the same compound, in data set [3] (Unc0642 2.5 mg/kg i.p. alone), the “Body weight versus DMSO control” value is reported as “no difference”. In addition, the Body weight result in data set [3] (combined Unc0642 2.5 mg/kg i.p. and 2 Gy IR, until end point, p < 0.001) is “Drastic weight loss”.
